# Data as given in ChEMBL document CHEMBL4373723 (J Med Chem, 2019).
# Bridge positions count the residues as written; N and C are the ends. Square brackets hold non-standard residues; d marks the D form. Peptide text beside a SMILES is read from it. I, II: the chains in the order shown. Ala(cPent) = N[C@@H](CC1CCCC1)C(=O)O; Nva(3-Et) = CCC(CC)[C@H](N)C(=O)O; hPhe = N[C@@H](CCc1ccccc1)C(=O)O; tBuAla = CC(C)(C)C[C@H](N)C(=O)O; Cha = N[C@@H](CC1CCCCC1)C(=O)O; Cba = N[C@@H](CC1CCC1)C(=O)O; hLeu = CC(C)CC[C@H](N)C(=O)O; Nle = CCCC[C@H](N)C(=O)O
# How the values were obtained:
# Frizzled-7 [1] = molecular target: T1, Frizzled-7 (Homo sapiens, UniProt O75084); settings: CHO
# Description: Binding affinity to recombinant human Frizzled-7 (Gln33 to Leu185 residues)/human IgG1 chimeric protein expressed in CHO cells assessed as association rate constant by SPR assay
# Frizzled-7 [2] = molecular target: T1, Frizzled-7; type: cell-based; settings: cho
# Frizzled-7 [3] = molecular target: T1, Frizzled-7; assay: biochemical; type: cell-based, CHO; settings: read-out: Kd
smiles,measurement,setting,value
CSCC[C@H](NC(=O)[C@@H](NC(=O)[C@H](Cc1cnc[nH]1)NC(=O)[C@H](CSSC[C@H](NC(=O)[C@H](Cc1c[nH]c2ccccc12)NC(=O)[C@H](CC(C)C)NC(=O)[C@H](CCCCN)NC(=O)[C@H](CC(C)C)NC(=O)[C@H](CC(=O)O)NC(=O)[C@H](CC(=O)O)NC(=O)[C@H](CO)NC(C)=O)C(=O)N[C@@H](Cc1cnc[nH]1)C(=O)N[C@H](C(=O)N[C@@H](CCSC)C(=O)N[C@@H](Cc1ccc(O)cc1)C(N)=O)C(C)C)NC(=O)[C@H](Cc1c[nH]c2ccccc12)NC(=O)[C@H](CC(C)C)NC(=O)[C@H](CCCCN)NC(=O)[C@H](CC(C)C)NC(=O)[C@H](CC(=O)O)NC(=O)[C@H](CC(=O)O)NC(=O)[C@H](CO)NC(C)=O)C(C)C)C(=O)N[C@@H](Cc1ccc(O)cc1)C(N)=O (I: Ac-SDDLKLWCHVMY-NH2 / II: Ac-SDDLKLWCHVMY-NH2; disulfide I:8-II:8),Ka,Frizzled-7 [1],55.6 ×10⁵ /M/s
same,Kd,Frizzled-7 [2],0.58 ×10⁻³ /s
same,Kd,Frizzled-7 [3],0.142 nM
CSCC[C@H](NC(=O)[C@@H](NC(=O)[C@H](Cc1cnc[nH]1)NC(=O)[C@H](CSSC[C@H](NC(=O)[C@H](Cc1c[nH]c2ccccc12)NC(=O)[C@H](Cc1ccccc1)NC(=O)[C@H](CCC(=O)O)NC(=O)[C@H](CC1CCCC1)NC(=O)[C@H](CC(=O)O)NC(=O)[C@H](CC(=O)O)NC(=O)[C@H](CO)NC(C)=O)C(=O)N[C@@H](Cc1cnc[nH]1)C(=O)N[C@H](C(=O)N[C@@H](CCSC)C(=O)N[C@@H](Cc1ccc(O)cc1)C(N)=O)C(C)C)NC(=O)[C@H](Cc1c[nH]c2ccccc12)NC(=O)[C@H](Cc1ccccc1)NC(=O)[C@H](CCC(=O)O)NC(=O)[C@H](CC1CCCC1)NC(=O)[C@H](CC(=O)O)NC(=O)[C@H](CC(=O)O)NC(=O)[C@H](CO)NC(C)=O)C(C)C)C(=O)N[C@@H](Cc1ccc(O)cc1)C(N)=O (I: Ac-SDD[Ala(cPent)]EFWCHVMY-NH2 / II: Ac-SDD[Ala(cPent)]EFWCHVMY-NH2; disulfide I:8-II:8),Ka,Frizzled-7 [1],46.5 ×10⁵ /M/s
same,Kd,Frizzled-7 [2],9.9 ×10⁻³ /s
same,Kd,Frizzled-7 [3],2.1 nM
CSCC[C@H](NC(=O)[C@@H](NC(=O)[C@H](Cc1cnc[nH]1)NC(=O)[C@H](CSSC[C@H](NC(=O)[C@H](Cc1c[nH]c2ccccc12)NC(=O)[C@H](Cc1ccccc1)NC(=O)[C@H](CCC(=O)O)NC(=O)[C@H](CC1CCC1)NC(=O)[C@H](CC(=O)O)NC(=O)[C@H](CC(=O)O)NC(=O)[C@H](CO)NC(C)=O)C(=O)N[C@@H](Cc1cnc[nH]1)C(=O)N[C@H](C(=O)N[C@@H](CCSC)C(=O)N[C@@H](Cc1ccc(O)cc1)C(N)=O)C(C)C)NC(=O)[C@H](Cc1c[nH]c2ccccc12)NC(=O)[C@H](Cc1ccccc1)NC(=O)[C@H](CCC(=O)O)NC(=O)[C@H](CC1CCC1)NC(=O)[C@H](CC(=O)O)NC(=O)[C@H](CC(=O)O)NC(=O)[C@H](CO)NC(C)=O)C(C)C)C(=O)N[C@@H](Cc1ccc(O)cc1)C(N)=O (I: Ac-SDD[Cba]EFWCHVMY-NH2 / II: Ac-SDD[Cba]EFWCHVMY-NH2; disulfide I:8-II:8),Ka,Frizzled-7 [1],4.6 ×10⁵ /M/s
same,Kd,Frizzled-7 [2],9.7 ×10⁻³ /s
same,Kd,Frizzled-7 [3],20.3 nM
CSCC[C@H](NC(=O)[C@@H](NC(=O)[C@H](Cc1cnc[nH]1)NC(=O)[C@H](CSSC[C@H](NC(=O)[C@H](Cc1c[nH]c2ccccc12)NC(=O)[C@H](Cc1ccccc1)NC(=O)[C@H](CCC(=O)O)NC(=O)[C@H](CC1CCCCC1)NC(=O)[C@H](CC(=O)O)NC(=O)[C@H](CC(=O)O)NC(=O)[C@H](CO)NC(C)=O)C(=O)N[C@@H](Cc1cnc[nH]1)C(=O)N[C@H](C(=O)N[C@@H](CCSC)C(=O)N[C@@H](Cc1ccc(O)cc1)C(N)=O)C(C)C)NC(=O)[C@H](Cc1c[nH]c2ccccc12)NC(=O)[C@H](Cc1ccccc1)NC(=O)[C@H](CCC(=O)O)NC(=O)[C@H](CC1CCCCC1)NC(=O)[C@H](CC(=O)O)NC(=O)[C@H](CC(=O)O)NC(=O)[C@H](CO)NC(C)=O)C(C)C)C(=O)N[C@@H](Cc1ccc(O)cc1)C(N)=O (I: Ac-SDD[Cha]EFWCHVMY-NH2 / II: Ac-SDD[Cha]EFWCHVMY-NH2; disulfide I:8-II:8),Ka,Frizzled-7 [1],56.7 ×10⁵ /M/s
same,Kd,Frizzled-7 [2],75.1 ×10⁻³ /s
same,Kd,Frizzled-7 [3],13.7 nM
CCCC[C@H](NC(=O)[C@H](CC(=O)O)NC(=O)[C@H](CC(=O)O)NC(=O)[C@H](CO)NC(C)=O)C(=O)N[C@@H](CCC(=O)O)C(=O)N[C@@H](Cc1ccccc1)C(=O)N[C@@H](Cc1c[nH]c2ccccc12)C(=O)N[C@@H](CSSC[C@H](NC(=O)[C@H](Cc1c[nH]c2ccccc12)NC(=O)[C@H](Cc1ccccc1)NC(=O)[C@H](CCC(=O)O)NC(=O)[C@H](CCCC)NC(=O)[C@H](CC(=O)O)NC(=O)[C@H](CC(=O)O)NC(=O)[C@H](CO)NC(C)=O)C(=O)N[C@@H](Cc1cnc[nH]1)C(=O)N[C@H](C(=O)N[C@@H](CCSC)C(=O)N[C@@H](Cc1ccc(O)cc1)C(N)=O)C(C)C)C(=O)N[C@@H](Cc1cnc[nH]1)C(=O)N[C@H](C(=O)N[C@@H](CCSC)C(=O)N[C@@H](Cc1ccc(O)cc1)C(N)=O)C(C)C (I: Ac-SDD[Nle]EFWCHVMY-NH2 / II: Ac-SDD[Nle]EFWCHVMY-NH2; disulfide I:8-II:8),Ka,Frizzled-7 [1],42.8 ×10⁵ /M/s
same,Kd,Frizzled-7 [2],23.1 ×10⁻³ /s
same,Kd,Frizzled-7 [3],5.4 nM
CCC(CC)[C@H](NC(=O)[C@H](CC(=O)O)NC(=O)[C@H](CC(=O)O)NC(=O)[C@H](CO)NC(C)=O)C(=O)N[C@@H](CCC(=O)O)C(=O)N[C@@H](Cc1ccccc1)C(=O)N[C@@H](Cc1c[nH]c2ccccc12)C(=O)N[C@@H](CSSC[C@H](NC(=O)[C@H](Cc1c[nH]c2ccccc12)NC(=O)[C@H](Cc1ccccc1)NC(=O)[C@H](CCC(=O)O)NC(=O)[C@@H](NC(=O)[C@H](CC(=O)O)NC(=O)[C@H](CC(=O)O)NC(=O)[C@H](CO)NC(C)=O)C(CC)CC)C(=O)N[C@@H](Cc1cnc[nH]1)C(=O)N[C@H](C(=O)N[C@@H](CCSC)C(=O)N[C@@H](Cc1ccc(O)cc1)C(N)=O)C(C)C)C(=O)N[C@@H](Cc1cnc[nH]1)C(=O)N[C@H](C(=O)N[C@@H](CCSC)C(=O)N[C@@H](Cc1ccc(O)cc1)C(N)=O)C(C)C (I: Ac-SDD[Nva(3-Et)]EFWCHVMY-NH2 / II: Ac-SDD[Nva(3-Et)]EFWCHVMY-NH2; disulfide I:8-II:8),Ka,Frizzled-7 [1],73.6 ×10⁵ /M/s
same,Kd,Frizzled-7 [2],29.2 ×10⁻³ /s
same,Kd,Frizzled-7 [3],3.9 nM
CSCC[C@H](NC(=O)[C@@H](NC(=O)[C@H](Cc1cnc[nH]1)NC(=O)[C@H](CSSC[C@H](NC(=O)[C@H](Cc1c[nH]c2ccccc12)NC(=O)[C@H](Cc1ccccc1)NC(=O)[C@H](CCC(=O)O)NC(=O)[C@H](CCC(C)C)NC(=O)[C@H](CC(=O)O)NC(=O)[C@H](CC(=O)O)NC(=O)[C@H](CO)NC(C)=O)C(=O)N[C@@H](Cc1cnc[nH]1)C(=O)N[C@H](C(=O)N[C@@H](CCSC)C(=O)N[C@@H](Cc1ccc(O)cc1)C(N)=O)C(C)C)NC(=O)[C@H](Cc1c[nH]c2ccccc12)NC(=O)[C@H](Cc1ccccc1)NC(=O)[C@H](CCC(=O)O)NC(=O)[C@H](CCC(C)C)NC(=O)[C@H](CC(=O)O)NC(=O)[C@H](CC(=O)O)NC(=O)[C@H](CO)NC(C)=O)C(C)C)C(=O)N[C@@H](Cc1ccc(O)cc1)C(N)=O (I: Ac-SDD[hLeu]EFWCHVMY-NH2 / II: Ac-SDD[hLeu]EFWCHVMY-NH2; disulfide I:8-II:8),Ka,Frizzled-7 [1],10.9 ×10⁵ /M/s
same,Kd,Frizzled-7 [2],123.5 ×10⁻³ /s
same,Kd,Frizzled-7 [3],115 nM
CSCC[C@H](NC(=O)[C@@H](NC(=O)[C@H](Cc1cnc[nH]1)NC(=O)[C@H](CSSC[C@H](NC(=O)[C@H](Cc1c[nH]c2ccccc12)NC(=O)[C@H](Cc1ccccc1)NC(=O)[C@H](CCC(=O)O)NC(=O)[C@H](CCc1ccccc1)NC(=O)[C@H](CC(=O)O)NC(=O)[C@H](CC(=O)O)NC(=O)[C@H](CO)NC(C)=O)C(=O)N[C@@H](Cc1cnc[nH]1)C(=O)N[C@H](C(=O)N[C@@H](CCSC)C(=O)N[C@@H](Cc1ccc(O)cc1)C(N)=O)C(C)C)NC(=O)[C@H](Cc1c[nH]c2ccccc12)NC(=O)[C@H](Cc1ccccc1)NC(=O)[C@H](CCC(=O)O)NC(=O)[C@H](CCc1ccccc1)NC(=O)[C@H](CC(=O)O)NC(=O)[C@H](CC(=O)O)NC(=O)[C@H](CO)NC(C)=O)C(C)C)C(=O)N[C@@H](Cc1ccc(O)cc1)C(N)=O (I: Ac-SDD[hPhe]EFWCHVMY-NH2 / II: Ac-SDD[hPhe]EFWCHVMY-NH2; disulfide I:8-II:8),Ka,Frizzled-7 [1],69.6 ×10⁵ /M/s
same,Kd,Frizzled-7 [2],9.1 ×10⁻³ /s
same,Kd,Frizzled-7 [3],1.4 nM
CSCC[C@H](NC(=O)[C@@H](NC(=O)[C@H](Cc1cnc[nH]1)NC(=O)[C@H](CSSC[C@H](NC(=O)[C@H](Cc1c[nH]c2ccccc12)NC(=O)[C@H](Cc1ccccc1)NC(=O)[C@H](CCC(=O)O)NC(=O)[C@H](CC(C)(C)C)NC(=O)[C@H](CC(=O)O)NC(=O)[C@H](CC(=O)O)NC(=O)[C@H](CO)NC(C)=O)C(=O)N[C@@H](Cc1cnc[nH]1)C(=O)N[C@H](C(=O)N[C@@H](CCSC)C(=O)N[C@@H](Cc1ccc(O)cc1)C(N)=O)C(C)C)NC(=O)[C@H](Cc1c[nH]c2ccccc12)NC(=O)[C@H](Cc1ccccc1)NC(=O)[C@H](CCC(=O)O)NC(=O)[C@H](CC(C)(C)C)NC(=O)[C@H](CC(=O)O)NC(=O)[C@H](CC(=O)O)NC(=O)[C@H](CO)NC(C)=O)C(C)C)C(=O)N[C@@H](Cc1ccc(O)cc1)C(N)=O (I: Ac-SDD[tBuAla]EFWCHVMY-NH2 / II: Ac-SDD[tBuAla]EFWCHVMY-NH2; disulfide I:8-II:8),Ka,Frizzled-7 [1],44 ×10⁵ /M/s
same,Kd,Frizzled-7 [2],0.95 ×10⁻³ /s
same,Kd,Frizzled-7 [3],0.22 nM
CSCC[C@H](NC(=O)[C@@H](NC(=O)[C@H](Cc1cnc[nH]1)NC(=O)[C@H](CSSC[C@H](NC(=O)[C@H](Cc1c[nH]c2ccccc12)NC(=O)[C@H](Cc1ccccc1)NC(=O)[C@H](CCC(=O)O)NC(=O)[C@H](CC(C)C)NC(=O)[C@H](CC(=O)O)NC(=O)[C@H](CC(=O)O)NC(=O)[C@@H](NC(C)=O)[C@@H](C)O)C(=O)N[C@@H](Cc1cnc[nH]1)C(=O)N[C@H](C(=O)N[C@@H](CCSC)C(=O)N[C@@H](Cc1ccc(O)cc1)C(N)=O)C(C)C)NC(=O)[C@H](Cc1c[nH]c2ccccc12)NC(=O)[C@H](Cc1ccccc1)NC(=O)[C@H](CCC(=O)O)NC(=O)[C@H](CC(C)C)NC(=O)[C@H](CC(=O)O)NC(=O)[C@H](CC(=O)O)NC(=O)[C@@H](NC(C)=O)[C@@H](C)O)C(C)C)C(=O)N[C@@H](Cc1ccc(O)cc1)C(N)=O (I: Ac-TDDLEFWCHVMY-NH2 / II: Ac-TDDLEFWCHVMY-NH2; disulfide I:8-II:8),Ka,Frizzled-7 [1],51.5 ×10⁵ /M/s
same,Kd,Frizzled-7 [2],0.72 ×10⁻³ /s
same,Kd,Frizzled-7 [3],0.14 nM
